Source: USRE47786E1, “Haloalkyl heteroaryl benzamide compounds” (Romark Laboratories, L.C., priority 2009, dated 2019)

Columns and labels:
HeLa R19 cells [1] = assay: Toxicity (MTT) in HeLa R19 cells (Rhinovirus section)
[2] = Cytotoxicity by neutral red dye uptake in HBV assay cultures; assay type: cell-based; details: human, confluent 2.2.15 cells (HBV-replicating), nine daily doses
Method: (§1) HBV antiviral assays were conducted as previous described [Korba and Gerin, Antiviral Res. 19:55 (1992 Confluent cultures of 2.2.15 cells were maintained on 96-well flat-bottomed tissue culture plates (confluence in this culture system is required for active, high levels of HBV replication equivalent to that observed in chronically-infected individuals [Sells et al. J. Virol. 62, 2836-2844 (1988); Korba and Gerin (1992)]. Cultures were treated with nine consecutive daily doses of the test compounds. HBV DNA levels were assessed by quantitative blot hybridization 24 hr. after the last treatment. Cytotoxicity was assessed by uptake of neutral red dye 24 hr. following the last treatment.
(§2) EC50, EC90 and CC50 values (±standard deviations [S.D.]) were calculated by linear regression analysis using data combined from all treated cultures (Korba and Gerin, 1992; Okuse et al., 2005). EC50 and EC90 are drug concentrations at which a 2-fold, or a 10-fold depression of intracellular HBV DNA or HCV RNA (relative to the average levels in untreated cultures), respectively, was observed. CC50 is the drug concentration at which a 2-fold lower level of neutral red dye uptake (relative to the average levels in untreated cultures) was observed. Selectivity index (S.I.) was calculated as CC50/EC90 for HBV assays and CC50/EC50 for HCV assays. EC90 values were used for calculation of the S.I. in HBV assays since at least a 3-fold depression of HBV DNA levels is typically required to achieve statistical significance in this assay system (Korba and Gerin, 1992). For combination treatments, EC50, EC90, CC50 and S.I. are presented for the first compound listed. The molar ratio of the compounds in each combination is also indicated.

[3] = test system: HCV replicon cell line, AVAS (sub-genomic CONI, genotype 1b); assay: Primary HCV replicon cell assay, genotype 1B; assay type: cell-based; details: Hepatitis C virus, 72 h
Method: (§3) Antiviral activity of test compounds was assessed in a 3-day assay using the stably-expressing HCV replicon cell line, AVAS (sub-genomic CONI, genotype 1b) [Blight et al., Science 290, 1972-1974 (2000)] maintained as sub-confluent cultures on 96-well plates as previously described (Okuse et al., Antiviral Research 65, 23-34 (2005)]. Antiviral activity was determined by blot hybridization analysis of intracellular HCV RNA (normalized to the level of cellular B-actin RNA in each culture sample) and cytotoxicity was assessed by neutral red dye uptake after 3 days of treatment. Additional studies were performed using Huh7 cells containing another HCV replicon, H/FL-Neo, a genotype 1a full length construct [Blight et al., J. Virol. 77, 3181-3190 (2003)]. For studies involving human serum, standard culture medium (which contains 10% fetal bovine serum) and assay conditions were maintained.
as §2

Hep-2 cells = details: human
HBV = HBV extracellular virion antiviral assay in 2.2.15 cells; assay type: cell-based; details: Hepatitis B virus, extracellular virion HBV DNA, nine daily doses
Method: as §1
as §2, with “EC50 and EC90 are drug concentrations at which a 2-fold, or a 10-fold depression of intracellular HBV DNA or HCV RNA (relative to the average levels in untreated cultures), respectively, was observed.” left out

[4] = Cytotoxicity by neutral red dye uptake in HCV replicon cells; assay type: cell-based; details: human, HCV replicon cell line AVAS (sub-genomic CONI), HCV replicon cells genotype 1B
Method: as §3, §2

HeLa R19 cells [5] = assay: Toxicity (MTT) in HeLa R19 cells (Adenovirus section)
37RC cells = assay: Toxicity (MTT) in 37RC cells
MDCK cells = assay: Toxicity (MTT) in MDCK cells
MA104 cells [6] = assay: Toxicity (MTT) in MA104 cells (Rotavirus SA11 section)
MA104 cells [7] = assay: Toxicity (MTT) in MA104 cells (Rotavirus WAG8P1 section)
MA104 cells [8] = assay: Toxicity (MTT) in MA104 cells (Rhabdovirus section)
HeLa cells = assay: Toxicity (MTT) in HeLa cells
A72 cells = assay: Toxicity (MTT) in A72 cells

Row | SMILES | Toxicity LD50 (MTT) (HeLa R19 cells [1]) [µg/mL] | CC50 at 9 days [2] [µM] | EC50 [3] [µM] | EC90 [3] [µM] | Toxicity LD50 (MTT) (Hep-2 cells) [µg/mL] | EC50 (HBV) [µM] | EC90 (HBV) [µM] | CC50 at 3 days [4] [µM] | Toxicity LD50 (MTT) (HeLa R19 cells [5]) [µg/mL] | melting point | Toxicity LD50 (MTT) (37RC cells) [µg/mL] | Toxicity LD50 (MTT) (MDCK cells) [µg/mL] | Toxicity LD50 (MTT) (MA104 cells [6]) [µg/mL] | Toxicity LD50 (MTT) (MA104 cells [7]) [µg/mL] | Toxicity LD50 (MTT) (MA104 cells [8]) [µg/mL] | Toxicity LD50 (MTT) (HeLa cells) [µg/mL] | Toxicity LD50 (MTT) (A72 cells) [µg/mL]
1 | CC(=O)Oc1ccccc1C(=O)Nc1ncc(C(F)(F)F)s1 [Compound 1] | >50 | > 100 | < 5 | > 5 | >50 | 3.2 to 4 | > 4 | 3.7 | 4 | – | – | – | – | – | – | – | –
2 | O=C(Nc1ncc(C(F)(F)F)s1)c1ccccc1O [Compound 2] | – | > 100 | 0.005 to 0.05 | 0.005 to 0.05 | – | 3.2 to 4 | > 4 | 0.46 | – | 260 to 264 °C (dec.) | – | – | – | – | – | – | –
3 | CC(=O)Oc1ccccc1C(=O)Nc1nc(C(F)(F)F)cs1 [Compound 3] | – | > 100 | – | – | >50 | > 4 | > 4 | – | – | – | – | – | – | – | – | – | –
4 | O=C(Nc1nc(C(F)(F)F)cs1)c1ccccc1O [Compound 4] | – | > 100 | – | – | >50 | > 4 | > 4 | – | – | – | – | – | – | – | – | – | –
5 | CC(=O)Oc1ccccc1C(=O)Nc1nnc(C(F)(F)F)s1 [Compound 5] | – | > 100 | < 5 | > 5 | – | > 4 | > 4 | 15 | – | – | >50 | >50 | – | – | – | – | –
6 | O=C(Nc1nnc(C(F)(F)F)s1)c1ccccc1O [Compound 6] | – | > 100 | < 5 | > 5 | >50 | > 4 | > 4 | 5.3 | – | – | – | – | – | – | – | – | –
7 | CC(=O)Oc1ccccc1C(=O)Nc1ncc([N+](=O)[O-])s1 [Nitazoxanide, reference compound] | >50 | > 100 | 0.05 to 0.5 | 0.5 to 10 | >50 | 0.05 to 0.2 | 0.8 to 3.2 | 32 | >50 | – | >50 | >50 | >50 | >50 | – | – | –
8 | O=C(Nc1ncc([N+](=O)[O-])s1)c1ccccc1O [Tizoxanide] | >50 | > 100 | 0.05 to 0.5 | 0.5 to 10 | 50 | 0.05 to 0.2 | 0.8 to 3.2 | 15 | 0.8 | – | >50 | >50 | >50 | >50 | 50 | 3 | >50
